*1 amine or outer side, *2 acyl side, *3 side chain or, on linkers, in order; H or OH if unused. Where a SMILES comes first, the peptide text is derived from it. Side-chain parts run from the residue outwards. [ ]: non-standard residue; d: D form. The star is where a group is joined. γGlu = O=C(O)[C@H](CCC(=O)[*:2])N[*:1]; Stearoyl = CCCCCCCCCCCCCCCCCC(=O)*; Nle = CCCC[C@H](N)C(=O)O; AEEA = NCCOCCOCC(=O)O; Aib = CC(C)(N)C(=O)O
Molecular target: T1, RXFP1 (Homo sapiens, UniProt Q9HBX9)
T1 sequence (Q9HBX9 1-757): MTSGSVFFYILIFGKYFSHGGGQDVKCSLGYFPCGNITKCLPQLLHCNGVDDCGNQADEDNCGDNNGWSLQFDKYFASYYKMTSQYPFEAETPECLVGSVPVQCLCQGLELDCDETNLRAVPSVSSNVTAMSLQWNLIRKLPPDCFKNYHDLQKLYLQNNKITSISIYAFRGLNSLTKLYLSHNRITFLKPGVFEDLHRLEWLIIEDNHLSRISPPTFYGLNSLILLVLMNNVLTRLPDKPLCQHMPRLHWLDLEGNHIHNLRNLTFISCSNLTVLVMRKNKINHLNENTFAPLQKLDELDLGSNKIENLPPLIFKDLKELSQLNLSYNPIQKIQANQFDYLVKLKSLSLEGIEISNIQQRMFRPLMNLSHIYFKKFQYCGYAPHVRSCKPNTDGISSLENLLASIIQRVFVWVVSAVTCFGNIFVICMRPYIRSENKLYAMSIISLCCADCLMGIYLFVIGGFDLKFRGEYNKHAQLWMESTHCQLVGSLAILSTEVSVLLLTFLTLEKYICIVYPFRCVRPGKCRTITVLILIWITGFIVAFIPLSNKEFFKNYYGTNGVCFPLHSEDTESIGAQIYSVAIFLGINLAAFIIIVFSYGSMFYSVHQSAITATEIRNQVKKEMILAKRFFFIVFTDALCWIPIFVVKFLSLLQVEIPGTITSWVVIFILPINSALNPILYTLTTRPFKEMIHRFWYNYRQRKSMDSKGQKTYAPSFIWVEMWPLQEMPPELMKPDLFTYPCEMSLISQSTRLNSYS
Test: Phospho-VASP (Ser157) MSD assay in EA.hy926_RXFP1 cells
Assay type: cell-based
Design: expressed in transfected cells; host or cells: EA.hy926 (ATCC CRL-2922), lentiviral transduction, puromycin selection
Conditions: serum-free DMEM, 20 min 37 °C, n = 3, read-out: EC50 [CI95%] VASP phosphorylation on S157
Description: These experiments were conducted according to the MSD protocol (K151FFD-2) and using a Sector 2400 from Mesoscale Discovery. In order to reduce the basal phosphorylation activity of VASP protein, EA.hy926_RXFP1 cells were stimulated with effector solutions in basal DMEM (i.e., without serum). Cells were plated in 96-well plate at a density of 35.000 cells/well overnight in a volume of 200µL of cell culture media. Prior to stimulation, growth medium was discarded, and the cells were washed one time with basal DMEM medium, before being incubated for 4 h with basal DMEM medium at 37 °C in 5% CO2. […] For control cells, 50µL of basal DMEM medium without effector standard solution were added onto the cells. The microplates were incubated for 20 min at 37 °C in 5% CO2. All the following steps were carried-out on ice. Medium was aspirated and the cells were directly lysed by addition of 50μL of complete lysis buffer/well (lysis buffer is provided in the pVASP assay kit and prepared according to MSD instructions). The microplates were placed for 60 min under orbital agitation. The cell lysates were collected in round bottom microplate then stored at − 80 °C until pVASP content determination according to MSD protocol.

- EC50: 0.19 nM
SMILES: CCCCCCCCCCCCCCCCCC(=O)N[C@@H](CCC(=O)N[C@@H](CCC(=O)N[C@@H](CCC(=O)NCCOCCOCC(=O)NCCOCCOCC(=O)NCCOCCOCC(=O)NCCCC[C@H](NC(=O)[C@H](CCCCNC(C)=O)NC(=O)[C@H](CCCCN)NC(=O)[C@H](CCCNC(=N)N)NC(=O)C(C)(C)NC(=O)[C@H](CO)NC(=O)[C@H](Cc1c[nH]c2ccccc12)NC(=O)[C@@H](NC(=O)[C@H](CO)NC(=O)[C@H](CCCC)NC(=O)CNC(=O)[C@H](CCC(=O)O)NC(=O)C(C)(C)NC(=O)C(C)(C)NC(=O)[C@@H](NC(=O)[C@H](CCCCNC(C)=O)NC(=O)[C@H](C)NC(=O)[C@H](CCCNC(=N)N)NC(=O)[C@@H](NC(=O)[C@H](CCCCN)NC(=O)[C@H](CCC(=O)O)NC(=O)[C@H](CCCNC(=N)N)NC(=O)CNC(=O)[C@H](CCC(=O)O)NC(=O)[C@H](CC(C)C)NC(C)=O)C(C)C)[C@@H](C)CC)[C@@H](C)O)C(N)=O)C(=O)O)C(=O)O)C(=O)O [SA10SC-RLX] (Ac-LEGREKVRAK(Ac)I[Aib][Aib]EG[Nle]STWS[Aib]RKK(Ac)K([AEEA-AEEA-AEEA-γGlu-γGlu-γGlu-Stearoyl])-NH2)

Source: PMC9705314, “Characterization of a new potent and long-lasting single chain peptide agonist of RXFP1 in cells and in vivo translational models” (Scientific Reports, 2022)
